Data taken from PubChem BioAssay AID296 (DTP/NCI, 2004).
Inconclusive results are not listed.

System: MX-1 breast xenograft, nude mice, tumor weight T/C
Experiment: NCI In Vivo Anticancer Drug Screen. Data for tumor model Human Mammary Carcinoma MX-1 Xenograft (intrarenal inoculation) in NU/NU Swiss (nude) mice
Conditions: endpoint: mean tumor weight change, higher = larger tumour
Summary of the method: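 Activity is given as a ratio, with each measurement in the compound-treated arm divided by the matching measurement in vehicle-dosed controls. Tumour size or survival serves as the measured parameter.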

[1] = dose: 200.0 mg/kg/injection, schedule: Q01DX010 (sc), vehicle: water
[2] = dose: 12.5 mg/kg/injection, schedule: Q04DX003 (sc), vehicle: saline with Tween-80
[3] = dose: 25.0 mg/kg/injection, schedule: Q04DX003 (sc), vehicle: saline with Tween-80
[4] = dose: 50.0 mg/kg/injection, schedule: Q04DX003 (sc), vehicle: saline with Tween-80
[5] = dose: 100.0 mg/kg/injection, schedule: Q04DX003 (sc), vehicle: saline with Tween-80
[6] = dose: 600.0 mg/kg/injection, schedule: Q04DX003 (sc), vehicle: saline with Tween-80

SMILES: O=C(NO)c1ccc(O)c(O)c1
- T/C (dose: 200.0 mg/kg/injection, schedule: Q04DX003 (sc), vehicle: other): 26 % of control
- T/C (dose: 200.0 mg/kg/injection, schedule: Q04DX003 (sc), vehicle: water): 104 % of control
- T/C (dose: 400.0 mg/kg/injection, schedule: Q04DX003 (sc), vehicle: other): 60 % of control
- T/C (dose: 400.0 mg/kg/injection, schedule: Q04DX003 (sc), vehicle: water): 87 % of control
- T/C (dose: 800.0 mg/kg/injection, schedule: Q04DX003 (sc), vehicle: other): 18 % of control
- T/C (dose: 800.0 mg/kg/injection, schedule: Q04DX003 (sc), vehicle: water): 78 % of control
- T/C (dose: 1200.0 mg/kg/injection, schedule: Q04DX003 (sc), vehicle: distilled water + Tween-80): 77 % of control

SMILES: C=C1C(=O)C2=CC1CCC(=O)C1(C)CCC(OC(C)=O)C(C)(C)C1CC2O (stereo not given)
- T/C (dose: 30.0 mg/kg/injection, schedule: Q04DX003 (sc), vehicle: Klucel (hydroxypropylcellulose) (HPC)): 107 % of control
- T/C (dose: 60.0 mg/kg/injection, schedule: Q04DX003 (sc), vehicle: Klucel (hydroxypropylcellulose) (HPC)): 69 % of control
- T/C (dose: 120.0 mg/kg/injection, schedule: Q04DX003 (sc), vehicle: Klucel (hydroxypropylcellulose) (HPC)): 42 % of control

SMILES: O=C1NC(O)CCN1C1OC(CO)C(O)C1O (stereo not given)
- T/C [1]: 111 % of control
- T/C (dose: 400.0 mg/kg/injection, schedule: Q01DX010 (sc), vehicle: water): 112 % of control
- T/C (dose: 800.0 mg/kg/injection, schedule: Q01DX010 (sc), vehicle: water): 79 % of control
- T/C (dose: 1600.0 mg/kg/injection, schedule: Q01DX010 (sc), vehicle: water): 103 % of control

SMILES: CN1C(=O)NC(c2ccc(Cl)cc2)(c2ccc(Cl)cc2)C1=O
- T/C (dose: 50.0 mg/kg/injection, schedule: Q01DX010 (sc), vehicle: saline with Tween-80): 90 % of control
- T/C (dose: 100.0 mg/kg/injection, schedule: Q01DX010 (sc), vehicle: saline with Tween-80): 109 % of control
- T/C (dose: 200.0 mg/kg/injection, schedule: Q01DX010 (sc), vehicle: saline with Tween-80): 60 % of control
- T/C (dose: 400.0 mg/kg/injection, schedule: Q01DX010 (sc), vehicle: saline with Tween-80): 49 % of control

SMILES: Cc1c(N)nc([C@H](CC(N)=O)NC[C@H](N)C(N)=O)nc1C(=O)N[C@H](C(=O)N[C@H](C)[C@@H](O)CC(=O)N[C@H](C(=O)NC(O[C@@H]1O[C@@H](C)[C@@H](N)[C@@H](O)[C@H]1O)C(O)c1nc(-c2nc(C(=O)NCCCCN)cs2)cs1)[C@@H](C)O)[C@@H](O[C@@H]1O[C@@H](CO)[C@@H](O)[C@H](O)[C@@H]1O[C@H]1O[C@H](CO)[C@@H](O)[C@H](OC(N)=O)[C@@H]1O)c1c[nH]cn1 (stereo not given in full)
- T/C (dose: 4.0 mg/kg/injection, schedule: Q04DX003 (sc), vehicle: saline): 120 % of control
- T/C (dose: 8.0 mg/kg/injection, schedule: Q04DX003 (sc), vehicle: saline): 64 % of control
- T/C (dose: 16.0 mg/kg/injection, schedule: Q04DX003 (sc), vehicle: saline): 64 % of control
- T/C (dose: 32.0 mg/kg/injection, schedule: Q04DX003 (sc), vehicle: saline): 47 % of control

SMILES: NC(=O)CC(N)C(=O)O (stereo not given)
- T/C (dose: 1600.0 mg/kg/injection, schedule: Q04DX003 (sc), vehicle: saline): 88 % of control
- T/C (dose: 3200.0 mg/kg/injection, schedule: Q04DX003 (sc), vehicle: saline): 68 % of control
- T/C (dose: 6400.0 mg/kg/injection, schedule: Q04DX003 (sc), vehicle: saline): 90 % of control

SMILES: COc1cccc2c1C(=O)c1c(O)c3c(c(O)c1C2=O)C[C@@](O)(/C(C)=N/NC(=O)c1ccccc1)C[C@@H]3OC1CC(N)C(O)C(C)O1 (stereo not given in full)
- T/C (dose: 18.75 mg/kg/injection, schedule: Q04DX003 (sc), vehicle: water): 73 % of control
- T/C (dose: 37.5 mg/kg/injection, schedule: Q04DX003 (sc), vehicle: water): 25 % of control

SMILES: O=C(O)CSc1nc(-c2ccccc2)c(-c2ccccc2)n1-c1ccccn1
- T/C (dose: 50.0 mg/kg/injection, schedule: Q01DX010 (sc), vehicle: water): 196 % of control
- T/C (dose: 100.0 mg/kg/injection, schedule: Q01DX010 (sc), vehicle: water): 50 % of control
- T/C [1]: 78 % of control

SMILES: CC1c2ccccc2CC(CCN(C)C)c2ccccc21 (stereo not given)
- T/C (dose: 9.37 mg/kg/injection, schedule: Q04DX003 (sc), vehicle: saline with Tween-80): 101 % of control
- T/C [2]: 63 % of control
- T/C (dose: 18.75 mg/kg/injection, schedule: Q04DX003 (sc), vehicle: saline with Tween-80): 83 % of control
- T/C [3]: 54 % of control
- T/C (dose: 37.5 mg/kg/injection, schedule: Q04DX003 (sc), vehicle: saline with Tween-80): 52 % of control
- T/C [4]: 65 % of control
- T/C (dose: 75.0 mg/kg/injection, schedule: Q04DX003 (sc), vehicle: saline with Tween-80): 26 % of control
- T/C [5]: 38 % of control
- T/C (dose: 150.0 mg/kg/injection, schedule: Q04DX003 (sc), vehicle: saline with Tween-80): -3 % of control
- T/C [6]: -19 % of control

SMILES: S=P(N1CC1)(N1CC1)N1CC1
- T/C (dose: 4.0 mg/kg/injection, schedule: Q01DX010 (sc), vehicle: saline): -94 % of control

SMILES: COc1cc(C(=O)c2cc3c(cc2C)OCO3)cc(OC)c1OC
- T/C (dose: 150.0 mg/kg/injection, schedule: Q04DX003 (sc), vehicle: Klucel (hydroxypropylcellulose) (HPC)): 46 % of control
- T/C (dose: 300.0 mg/kg/injection, schedule: Q04DX003 (sc), vehicle: Klucel (hydroxypropylcellulose) (HPC)): 44 % of control
- T/C (dose: 600.0 mg/kg/injection, schedule: Q04DX003 (sc), vehicle: Klucel (hydroxypropylcellulose) (HPC)): 43 % of control
- T/C (dose: 1200.0 mg/kg/injection, schedule: Q04DX003 (sc), vehicle: Klucel (hydroxypropylcellulose) (HPC)): 53 % of control

SMILES: C[n+]1cccc(NC(=O)c2ccc(NC(=O)C34CCC(C(=O)Nc5ccc(C(=O)Nc6ccc[n+](C)c6)cc5)(CC3)CC4)cc2)c1
- T/C [2]: 118 % of control
- T/C [3]: 64 % of control
- T/C [4]: 35 % of control
- T/C [5]: 27 % of control

SMILES: COC1=C(NC(C)=O)C(=O)c2nc(-c3nc(C(=O)O)c(C)c(-c4ccc(OC)c(OC)c4O)c3N)ccc2C1=O
- T/C (dose: 50.0 mg/kg/injection, schedule: Q04DX003 (sc), vehicle: Klucel (hydroxypropylcellulose) (HPC)): 118 % of control
- T/C (dose: 100.0 mg/kg/injection, schedule: Q04DX003 (sc), vehicle: Klucel (hydroxypropylcellulose) (HPC)): 47 % of control

SMILES: CC1=C[S+](c2ccccc2)c2cccc3cc4ccccc4c1c23 (stereo not given)
- T/C (dose: 8.0 mg/kg/injection, schedule: Q04DX003 (sc), vehicle: saline with Tween-80): 69 % of control
- T/C (dose: 16.0 mg/kg/injection, schedule: Q04DX003 (sc), vehicle: saline with Tween-80): 75 % of control

SMILES: CCN=C=NCCCN(C)C
- T/C (dose: 25.0 mg/kg/injection, schedule: Q04DX003 (sc), vehicle: saline): 112 % of control
- T/C (dose: 50.0 mg/kg/injection, schedule: Q04DX003 (sc), vehicle: saline): 76 % of control

SMILES: N#Cc1c(-c2ccc(F)cc2)c(-c2ccc(F)cc2)nn(CCO)c1=O
- T/C (dose: 100.0 mg/kg/injection, schedule: Q04DX003 (ip), vehicle: distilled water + Tween-80): 101 % of control
- T/C (dose: 200.0 mg/kg/injection, schedule: Q04DX003 (ip), vehicle: distilled water + Tween-80): 80 % of control

SMILES: CC1(O)C=CC(=O)C=C1
- T/C (dose: 25.0 mg/kg/injection, schedule: Q04DX003 (ip), vehicle: water): 109 % of control
- T/C (dose: 50.0 mg/kg/injection, schedule: Q04DX003 (ip), vehicle: water): 89 % of control

SMILES: O=C([O][Bi]([c]1ccccc1)[c]1ccccc1)c1ccccc1
- T/C (dose: 25.0 mg/kg/injection, schedule: Q04DX003 (ip), vehicle: Klucel (hydroxypropylcellulose) (HPC)): 91 % of control
- T/C (dose: 50.0 mg/kg/injection, schedule: Q04DX003 (ip), vehicle: Klucel (hydroxypropylcellulose) (HPC)): 78 % of control
- T/C (dose: 100.0 mg/kg/injection, schedule: Q04DX003 (ip), vehicle: Klucel (hydroxypropylcellulose) (HPC)): 64 % of control

SMILES: CCCCCCCCCCCCCCCCS(=O)CC(O)COC(=O)c1ccc(C(=O)OCC(O)CS(=O)CCCCCCCCCCCCCCCC)cc1 (stereo not given)
- T/C (dose: 50.0 mg/kg/injection, schedule: Q01DX010 (sc), vehicle: saline + Tween-80 + alcohol): 58 % of control
- T/C (dose: 100.0 mg/kg/injection, schedule: Q01DX010 (sc), vehicle: saline + Tween-80 + alcohol): 115 % of control
- T/C (dose: 200.0 mg/kg/injection, schedule: Q01DX010 (sc), vehicle: saline + Tween-80 + alcohol): 100 % of control
- T/C (dose: 400.0 mg/kg/injection, schedule: Q01DX010 (sc), vehicle: saline + Tween-80 + alcohol): 82 % of control

SMILES: CCCCCCCCCCCCCCCCCCCCCC(=O)Nc1ccn(C2OC(CO)C(O)C2O)c(=O)n1 (stereo not given)
- T/C (dose: 300.0 mg/kg/injection, schedule: Q04DX003 (sc), vehicle: saline with Tween-80): 123 % of control
- T/C [6]: 87 % of control
- T/C (dose: 1200.0 mg/kg/injection, schedule: Q04DX003 (sc), vehicle: saline with Tween-80): 68 % of control
- T/C (dose: 2400.0 mg/kg/injection, schedule: Q04DX003 (sc), vehicle: saline with Tween-80): 84 % of control
